From article PMC11910321, “Evolutionary scenarios for the specific recognition of nonhomologous endogenous peptides by G protein–coupled receptor paralogs” (The Journal of Biological Chemistry, 2024)
Where “and” joins values, the source holds several entries; their conditions need not be identical. Equal entries are not always repeated. No end group written: not given here.

Assays:
Assay type in all cases: cell-based
[1] = target: T1, (L1.35P, I3.24F, W4.61G)-MRGPRX1 (Homo sapiens, UniProt Q96LB2, I94F/L30P/W158G); assay: Intracellular Ca2+ mobilization in COS-7 cells, Gαq16-fused receptor, (L1.35P, I3.24F, W4.61G)-MRGPRX1
T1 construct: host or cells: COS-7
T1 sequence (Q96LB2 whole entry L30P/I94F/W158G, the tested form may be a part): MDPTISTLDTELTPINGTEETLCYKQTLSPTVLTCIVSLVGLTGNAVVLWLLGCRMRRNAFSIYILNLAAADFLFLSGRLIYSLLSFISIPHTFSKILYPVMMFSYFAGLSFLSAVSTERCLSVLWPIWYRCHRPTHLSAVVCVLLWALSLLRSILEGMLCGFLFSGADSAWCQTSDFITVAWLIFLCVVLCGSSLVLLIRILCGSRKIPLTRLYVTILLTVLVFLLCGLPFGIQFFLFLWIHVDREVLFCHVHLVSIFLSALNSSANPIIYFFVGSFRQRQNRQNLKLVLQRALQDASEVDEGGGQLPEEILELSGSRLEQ
Source text: (§1) ORFs of MRGPRX1 and MRGPRX2 purchased from OriGene and Mm-MRGPRX1 synthesized in Genscript were C-terminally fused with the human Gαq16 protein as described previously ([23]). Briefly, the human Gαq16 ORF clone (OriGene) was amplified and ligated into the XbaI site of a pcDNA6 plasmid (Invitrogen). Then, MRGPRX1 and MRGPRX2 were subcloned (Table S1) into the NotI–XbaI site of the Gαq16-ligated pcDNA6 plasmids. MRGPRX1 and two mutants were constructed using the PrimeSTAR Mutagenesis Basal Kit with mutation oligos (Table S1).
(§2) COS-7 cells were purchased from American Type Culture Collection and cultured in Dulbecco's modified Eagle's medium (Nacalai Tesque) supplemented with 10% fetalbovine serum (Sigma) and maintained at 37°C under 5% CO2. Intracellular Ca^2+ mobilization was measured as previously described ([42], [43]). In brief, 5 × 10^5 COS-7 cells were spread on a 60-mm dish 1 day before transfection. About 10 μg of GPCR expression vector were transfected into the cells using Lipofectamine 2000 (Thermo Fisher Scientific) according to the manufacturer’s instructions. After the 24-h incubation, 6 × 10^4 cells per well were respread on a 96-well plate for the following assay. Each MRGPRX mutant fused with human Gαq16 for expression at the cell membrane was confirmed by immunostaining using the anti-Gαq16 antibody (Ori Gene TA318890) (Fig. S5). SP (PEPTIDE […]) and BAM8–22 (Tocris Bioscience) were used for the assays. Real-time Ca^2+ mobilization of Gαq16-fused MRGPRX1/2 was measured using a Ca5 kit (Molecular Devices) and FlexStation III according to the manufacturer’s instructions. The calcium accumulation data were analyzed using Prism, version 6 (GraphPad) and found to fit a sigmoidal concentration–response curve, and the means ± SEMs of EC50 were calculated.

[2] = target: (I3.24F, W4.61G)-Mm-MRGPRX1 (Macaca mulatta, UniProt A0A5F7ZSN8, I94F/W158G); assay: Intracellular Ca2+ mobilization in COS-7 cells, Gαq16-fused receptor, (I3.24F, W4.61G)-Mm-MRGPRX1; conditions: SP
Chain of (I3.24F, W4.61G)-Mm-MRGPRX1 (A0A5F7ZSN8 1-322 I94F/W158G): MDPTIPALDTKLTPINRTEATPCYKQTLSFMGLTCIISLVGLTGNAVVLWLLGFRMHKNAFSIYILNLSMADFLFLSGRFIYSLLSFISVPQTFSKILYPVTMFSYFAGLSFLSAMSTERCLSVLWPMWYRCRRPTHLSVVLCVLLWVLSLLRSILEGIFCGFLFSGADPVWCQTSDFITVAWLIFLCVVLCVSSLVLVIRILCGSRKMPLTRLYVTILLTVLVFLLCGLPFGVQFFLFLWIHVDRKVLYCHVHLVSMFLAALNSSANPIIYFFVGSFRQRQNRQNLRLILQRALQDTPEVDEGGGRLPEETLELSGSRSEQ
Source text: as §1
(§3) COS-7 cells were purchased from American Type Culture Collection and cultured in Dulbecco's modified Eagle's medium (Nacalai Tesque) supplemented with 10% fetalbovine serum (Sigma) and maintained at 37°C under 5% CO2. Intracellular Ca^2+ mobilization was measured as previously described ([42], [43]). In brief, 5 × 10^5 COS-7 cells were spread on a 60-mm dish 1 day before transfection. […] Real-time Ca^2+ mobilization of Gαq16-fused MRGPRX1/2 was measured using a Ca5 kit (Molecular Devices) and FlexStation III according to the manufacturer’s instructions. The calcium accumulation data were analyzed using Prism, version 6 (GraphPad) and found to fit a sigmoidal concentration–response curve, and the means ± SEMs of EC50 were calculated.

(I3.24F, W4.61G)-MRGPRX1 = target: T2, (I3.24F, W4.61G)-MRGPRX1 (Homo sapiens, UniProt Q96LB2, I94F/W158G); assay: Intracellular Ca2+ mobilization in COS-7 cells, Gαq16-fused receptor, (I3.24F, W4.61G)-MRGPRX1
T2 construct: host or cells: COS-7
T2 sequence (Q96LB2 whole entry I94F/W158G, the tested form may be a part): as the sequence (Q96LB2 whole entry L30P/I94F/W158G, the tested form may be a part) above, with P30L counted along it
Source text: as §1, §2

(S1.43A)-MRGPRX1 = target: T3, (S1.43A)-MRGPRX1 (Homo sapiens, UniProt Q96LB2, S38A); assay: Intracellular Ca2+ mobilization in COS-7 cells, Gαq16-fused receptor, (S1.43A)-MRGPRX1; conditions: BAM8–22
T3 construct: host or cells: COS-7
T3 sequence (Q96LB2 whole entry S38A, the tested form may be a part): as the sequence (Q96LB2 whole entry L30P/I94F/W158G, the tested form may be a part) above, with P30L, S38A, F94I, G158W counted along it
Source text: as §1, §3

MRGPRX1 WT = target: T4, MRGPRX1 WT (Homo sapiens, UniProt Q96LB2); assay: Intracellular Ca2+ mobilization in COS-7 cells, Gαq16-fused receptor, wildtype MRGPRX1; conditions: BAM8–22
T4 construct: host or cells: COS-7
T4 sequence (Q96LB2 whole entry, the tested form may be a part): as the sequence (Q96LB2 whole entry L30P/I94F/W158G, the tested form may be a part) above, with P30L, F94I, G158W counted along it
Source text: as §1, §3

(F1.35L)-Mm-MRGPRX1 = (F1.35L)-Mm-MRGPRX1 (Macaca mulatta, UniProt A0A5F7ZSN8, F30L); assay: Intracellular Ca2+ mobilization in COS-7 cells, Gαq16-fused receptor, (F1.35L)-Mm-MRGPRX1; conditions: BAM8–22; COS-7, Ca2+ mobilization; mean ± standard error of three replicate analyses; read-out: Maximal response
Chain of (F1.35L)-Mm-MRGPRX1 (A0A5F7ZSN8 1-322 F30L): as the sequence (A0A5F7ZSN8 1-322 I94F/W158G) above, with F30L, F94I, G158W counted along it
Source text: as §1, §3

(P1.35L)-MRGPRX2 = target: T5, (P1.35L)-MRGPRX2 (Homo sapiens, UniProt Q96LB1, P33L); assay: Intracellular Ca2+ mobilization in COS-7 cells, Gαq16-fused receptor, (P1.35L)-MRGPRX2; conditions: COS-7, Ca2+ mobilization
T5 construct: host or cells: COS-7
T5 sequence (Q96LB1 1-330 P33L): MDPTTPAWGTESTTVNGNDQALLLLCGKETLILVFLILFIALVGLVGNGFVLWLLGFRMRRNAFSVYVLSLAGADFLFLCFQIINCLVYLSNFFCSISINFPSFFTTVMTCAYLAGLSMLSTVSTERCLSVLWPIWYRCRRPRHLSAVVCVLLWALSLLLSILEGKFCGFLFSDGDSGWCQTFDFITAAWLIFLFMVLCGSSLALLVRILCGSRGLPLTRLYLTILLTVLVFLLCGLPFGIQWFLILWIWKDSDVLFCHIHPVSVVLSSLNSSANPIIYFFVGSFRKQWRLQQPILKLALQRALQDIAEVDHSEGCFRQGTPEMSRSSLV
Description: COS-7 cells were purchased from American Type Culture Collection and cultured in Dulbecco's modified Eagle's medium (Nacalai Tesque) supplemented with 10% fetalbovine serum (Sigma) and maintained at 37°C under 5% CO2. Intracellular Ca^2+ mobilization was measured as previously described ([42], [43]). In brief, 5 × 10^5 COS-7 cells were spread on a 60-mm dish 1 day before transfection. About 10 μg of GPCR expression vector were transfected into the cells using Lipofectamine 2000 (Thermo Fisher Scientific) according to the manufacturer’s instructions. After the 24-h incubation, 6 × 10^4 cells per well were respread on a 96-well plate for the following assay. […] Real-time Ca^2+ mobilization of Gαq16-fused MRGPRX1/2 was measured using a Ca5 kit (Molecular Devices) and FlexStation III according to the manufacturer’s instructions. The calcium accumulation data were analyzed using Prism, version 6 (GraphPad) and found to fit a sigmoidal concentration–response curve, and the means ± SEMs of EC50 were calculated.

Mm-MRGPRX1 WT = target: T6, Mm-MRGPRX1 WT (Macaca mulatta, UniProt A0A5F7ZSN8); assay: Intracellular Ca2+ mobilization in COS-7 cells, Gαq16-fused receptor, intact Mm-MRGPRX1; conditions: BAM8–22
T6 construct: host or cells: COS-7
T6 sequence (A0A5F7ZSN8 1-322): as the sequence (A0A5F7ZSN8 1-322 I94F/W158G) above, with F94I, G158W counted along it
Source text: as §1, §3

(L1.35P)-MRGPRX1 = target: T7, (L1.35P)-MRGPRX1 (Homo sapiens, UniProt Q96LB2, L30P); assay: Intracellular Ca2+ mobilization in COS-7 cells, Gαq16-fused receptor, (L1.35P)-MRGPRX1
T7 construct: host or cells: COS-7
T7 sequence (Q96LB2 whole entry L30P, the tested form may be a part): as the sequence (Q96LB2 whole entry L30P/I94F/W158G, the tested form may be a part) above, with F94I, G158W counted along it
Source text: as §1, §3

[3] = COS-7, SP, compared with intact MRGPRX2, mean ± standard error of three replicate analyses, read-out: Maximal response (Emax)
[4] = SP, COS-7, Gαq16-fused, Ca2+ mobilization, three replicate analyses
[5] = COS-7, Ca2+ mobilization, mean ± standard error of three replicate analyses, read-out: Maximal response
[6] = COS-7, Gαq16-fused, Ca2+ mobilization, three replicate analyses

CSCC[C@H](NC(=O)[C@H](CC(C)C)NC(=O)CNC(=O)[C@H](Cc1ccccc1)NC(=O)[C@H](Cc1ccccc1)NC(=O)[C@H](CCC(N)=O)NC(=O)[C@H](CCC(N)=O)NC(=O)[C@@H]1CCCN1C(=O)[C@H](CCCCN)NC(=O)[C@@H]1CCCN1C(=O)[C@@H](N)CCCNC(=N)N)C(N)=O [SP, substance P]
EC50 compared with MRGPRX2-SP (in words) ([1]; COS-7, Ca2+ mobilization): comparable to that of MRGPRX2-SP
Emax [1, 3]: 39.5 ± 3%
EC50 [1, 4]: 1.66 µM
Emax [2, 5]: 100 ± 5.28%
EC50 [2, 6]: 0.2 µM and 0.69 µM
EC50 compared with MRGPRX2-SP (in words) ((I3.24F, W4.61G)-MRGPRX1; COS-7, Ca2+ mobilization): comparable to that of MRGPRX2-SP
Emax ((I3.24F, W4.61G)-MRGPRX1; [3]): 42.1 ± 2.28%
EC50 ((I3.24F, W4.61G)-MRGPRX1; [4]): 2.24 µM

VGRPEWWMDYQKRYG [BAM8–22, bovine adrenal medulla peptide 8–22]
Emax ((S1.43A)-MRGPRX1; [5]): 102 ± 9.64%
EC50 ((S1.43A)-MRGPRX1; [6]): 0.2 µM
Emax (MRGPRX1 WT; [5]): 100 ± 7.78%
EC50 (MRGPRX1 WT; [6]): 0.17 µM
Emax ((F1.35L)-Mm-MRGPRX1): 100 ± 1.94%
Response to 3 μM BAM8–22 ((P1.35L)-MRGPRX2): 30.23 ± 1.08%
Emax (Mm-MRGPRX1 WT; [5]): 66.5 ± 2.91%
EC50 (Mm-MRGPRX1 WT; [6]): 2.57 µM
Response to 3 μM BAM8–22, of that of wildtype MRGPRX1 ((L1.35P)-MRGPRX1; 3 μM BAM8–22, COS-7, Ca2+ mobilization): 48.48 ± 1.08%
EC50 ((L1.35P)-MRGPRX1; BAM8–22, COS-7, Gαq16-fused, Ca2+ mobilization, three replicate analyses): 3.16 µM
